{"source": "patent US10441562B2", "about": "“Aromatic farnesyl compound and application thereof” (INSTITUTE OF MICROBIOLOGY, CHINESE ACADEMY OF SCIENCES, priority 2015, dated 2019)", "assay_type_in_all_cases": "in vivo", "key": {"[1]": {"experiment": "body weight of hyperglycemia KK-A^y mice", "experimental": "(§1) Materials: accurately weigh the 2 compounds S13 and S28 discussed in example 2, and then add 0.5% CMC-Na to make the solution of 5 mg/ml used for activity test. KK-A^y mice are purchased from Chinese Academy of Medical Sciences & Peking Union Medical College Institute of Animal Studies. Experiments are carried out after adapting to the environment (T=20-24° C., constant humidity: 50-60%, 12 hours light exposure (8:00-20:00), soundproof, free feeding and drinking) for 1 week. Glucometer is purchased from Roche.\n(§2) Methods: 10 male C57 mice of 6-8 weeks of 20-22 g are used as normal control group (1). Detect the fasting glucose of male KK-A^y mice, which are 6-8 weeks with the weight of 28-32 g, and divide them into different groups according to the blood sugar level and body weight: (2) model control group, (3) which is administered by compound S13 with the dose of 1 mg/kg, (4) which is administered by compound S13 with the dose of 5 mg/kg, (5) which is administered by compound S13 with the dose of 10 mg/kg, (6) which is administered by compound S13 with the dose of 20 mg/kg, (7) which is administered by compound S28 with the dose of 1 mg/kg, (8) which is administered by compound S28 with the dose of 5 mg/kg, (9) which is administered by compound S28 with the dose of 10 mg/kg, (10) which is administered by compound S28 with the dose of 20 mg/kg, (11) which is administered by metformin with the dose of 8 g/kg, (12) which is administered by compound S13 with the dose of 2.5 mg/kg and metformin with the dose of 4 g/kg, (13) which is administered by compound S13 with the dose of 5 mg/kg and metformin with the dose of 4 g/kg, (14) which is administered by compound S28 with the dose of 2.5 mg/kg and metformin with the dose of […], (15) which is administered by compound S28 with the dose of 5 mg/kg and metformin with the dose of […]. Each group has 8 mice, and is administrated successively for 3 weeks. Model control group is given with equal amounts of 0.5% CMC-Na.\n(§3) 2) Effects on body weight and blood sugar: the body weight of mice are recorded at the 2th, 5th, 8th, 11th, 14th, 17th, 20th day after administration, and blood is collected from tip of tail to detect the blood sugar level (see table 10)."}, "[2]": {"system": "hyperglycemia KK-A^y mice", "experiment": "blood sugar of hyperglycemia KK-A^y mice", "set-up": "blood sugar: unit not given here", "settings": "for blood sugar at the 1st day, 0: 1st day 0 h; for blood sugar at the 1st day, 30 min: 1st day 30 min after intragastric administration", "experimental": "as §1, §2\n1) Effects of drugs on blood sugar: at the first day after administration, the mice are fasted for 2 hours and blood is collected (0 h) to detect the fasting blood sugar. After the compound is given to the mice by intragastric administration for 30 min, blood is collected from tip of tail to detect the blood sugar level.\nas §3"}, "[3]": {"system": "Wister rats fed with choline deficient diet", "experiment": "hepatic tissue section of non-alcohol fatty liver rats (HE)", "settings": "FIG. 2, 10 and 20 mg/kg", "experimental": "Methods: male SPF level Wister rats are randomly divided into groups: (1) normal group (2) model control group (3) which is administered by compound S13 with the dose of 10 mg/kg (4) which is administered by compound S13 with the dose of 20 mg/kg (5) which is administered by compound S28 with the dose of 10 mg/kg […] which is administered by compound S28 with the dose of 20 mg/kg. Each group has 10 mice. The mice of normal group are fed with standard diet, the mice of other groups are fed with choline deficient diet (high-fat diet). Food intake and body weight are detected. Feeding with choline deficient diet are considered as a frequently-used hepatic adipose infiltration modeling method of rodent, which can induce the denaturation of hepatocyte, hepatitis and liver injury, at the same time the increase of blood lipid level can induce the insulin resistance.\nAfter being fed with high-fat diet for 8 weeks, the mice of treated group are given drugs for 4 weeks successively. Model group and normal group are given with equal amounts of 0.5% CMC-Na. After administration of medicine for 4 weeks, the rats are executed under anesthesia, and then hepatic tissue and blood are collected.\n4) Hepatic tissue section: after the last administration, the rats are executed under anesthesia. Collect the liver on the ice, then quickly fix the liver into formalin and prepare the tissue sections."}, "[4]": {"settings": "2st day, 20 mg/kg, groups 6, 10"}, "[5]": {"settings": "5st day, 20 mg/kg, groups 6, 10"}, "[6]": {"settings": "8st day, 20 mg/kg, groups 6, 10"}, "[7]": {"settings": "11st day, 10 mg/kg, groups 5, 9"}, "[8]": {"settings": "11st day, 20 mg/kg, groups 6, 10"}, "[9]": {"settings": "14st day, 10 mg/kg, groups 5, 9"}, "[10]": {"settings": "14st day, 20 mg/kg, groups 6, 10"}, "[11]": {"settings": "17st day, 10 mg/kg, groups 5, 9"}, "[12]": {"settings": "17st day, 20 mg/kg, groups 6, 10"}, "[13]": {"settings": "20st day, 10 mg/kg, groups 5, 9"}, "[14]": {"settings": "20st day, 20 mg/kg, groups 6, 10"}}, "data": [{"compound": "CC(C)=CCC/C(C)=C/CCC1=C[C@@H](c2cc(O)ccc2O)OC1=O", "note": "[S28, (S,E)-5-(2,5-dihydroxyphenyl)-3-(4,8-dimethylnona-3,7-dien-1-yl)furan-2(5H)-one]", "values": [{"measurement": "effect on body weight (in words)", "setting": "[1]", "result": "litter effect on body weight"}, {"measurement": "Body weight", "setting": "[1]; 2st day, 1 mg/kg, groups 3, 7", "result": 30.1, "unit": "g"}, {"measurement": "Body weight", "setting": "[1]; 2st day, 5 mg/kg, groups 4, 8", "result": 30.3, "unit": "g"}, {"measurement": "Body weight", "setting": "[1]; 2st day, 10 mg/kg, groups 5, 9", "result": 30.3, "unit": "g"}, {"measurement": "Body weight", "setting": "[1]; [4]", "result": 30.4, "unit": "g"}, {"measurement": "Body weight", "setting": "[1]; 5st day, 1 mg/kg, groups 3, 7", "result": 30.23, "unit": "g"}, {"measurement": "Body weight", "setting": "[1]; 5st day, 5 mg/kg, groups 4, 8", "result": 30.43, "unit": "g"}, {"measurement": "Body weight", "setting": "[1]; 5st day, 10 mg/kg, groups 5, 9", "result": 30.51, "unit": "g"}, {"measurement": "Body weight", "setting": "[1]; [5]", "result": 30.36, "unit": "g"}, {"measurement": "Body weight", "setting": "[1]; 8st day, 1 mg/kg, groups 3, 7", "result": 30.6, "unit": "g"}, {"measurement": "Body weight", "setting": "[1]; 8st day, 5 mg/kg, groups 4, 8", "result": 30.8, "unit": "g"}, {"measurement": "Body weight", "setting": "[1]; 8st day, 10 mg/kg, groups 5, 9", "result": 30.4, "unit": "g"}, {"measurement": "Body weight", "setting": "[1]; [6]", "result": 30.2, "unit": "g"}, {"measurement": "Body weight", "setting": "[1]; 11st day, 1 mg/kg, groups 3, 7", "result": 30.8, "unit": "g"}, {"measurement": "Body weight", "setting": "[1]; 11st day, 5 mg/kg, groups 4, 8", "result": 31.3, "unit": "g"}, {"measurement": "Body weight", "setting": "[1]; [7]", "result": 31.4, "unit": "g"}, {"measurement": "Body weight", "setting": "[1]; [8]", "result": 30.5, "unit": "g"}, {"measurement": "Body weight", "setting": "[1]; 14st day, 1 mg/kg, groups 3, 7", "result": 31.25, "unit": "g"}, {"measurement": "Body weight", "setting": "[1]; 14st day, 5 mg/kg, groups 4, 8", "result": 31.76, "unit": "g"}, {"measurement": "Body weight", "setting": "[1]; [9]", "result": 32.56, "unit": "g"}, {"measurement": "Body weight", "setting": "[1]; [10]", "result": 30.4, "unit": "g"}, {"measurement": "Body weight", "setting": "[1]; 17st day, 1 mg/kg, groups 3, 7", "result": 31.4, "unit": "g"}, {"measurement": "Body weight", "setting": "[1]; 17st day, 5 mg/kg, groups 4, 8", "result": 31.5, "unit": "g"}, {"measurement": "Body weight", "setting": "[1]; [11]", "result": 32.6, "unit": "g"}, {"measurement": "Body weight", "setting": "[1]; [12]", "result": 30.7, "unit": "g"}, {"measurement": "Body weight", "setting": "[1]; 20st day, 1 mg/kg, groups 3, 7", "result": 32.1, "unit": "g"}, {"measurement": "Body weight", "setting": "[1]; 20st day, 5 mg/kg, groups 4, 8", "result": 31.3, "unit": "g"}, {"measurement": "Body weight", "setting": "[1]; [13]", "result": 32.2, "unit": "g"}, {"measurement": "Body weight", "setting": "[1]; [14]", "result": 30.2, "unit": "g"}, {"measurement": "effect on blood sugar of hyperglycemia mice (in words)", "setting": "[2]", "result": "significant effects on blood sugar of hyperglycemia mice"}, {"measurement": "blood sugar at the 1st day, 0", "setting": "[2]; 1 mg/kg, groups 3, 7", "result": 14.5}, {"measurement": "blood sugar at the 1st day, 0", "setting": "[2]; 5 mg/kg, groups 4, 8", "result": 14.5}, {"measurement": "blood sugar at the 1st day, 0", "setting": "[2]; 10 mg/kg, groups 5, 9", "result": 14.2}, {"measurement": "blood sugar at the 1st day, 0", "setting": "[2]; 20 mg/kg, groups 6, 10", "result": 14.1}, {"measurement": "blood sugar at the 1st day, 30 min", "setting": "[2]; 1 mg/kg, groups 3, 7", "result": 11.3}, {"measurement": "blood sugar at the 1st day, 30 min", "setting": "[2]; 5 mg/kg, groups 4, 8", "result": 9.42}, {"measurement": "blood sugar at the 1st day, 30 min", "setting": "[2]; 10 mg/kg, groups 5, 9", "result": 9.32}, {"measurement": "blood sugar at the 1st day, 30 min", "setting": "[2]; 20 mg/kg, groups 6, 10", "result": 6.24}, {"measurement": "blood sugar", "setting": "[2]; 2st day, 1 mg/kg, groups 3, 7", "result": 17.23}, {"measurement": "blood sugar", "setting": "[2]; 2st day, 5 mg/kg, groups 4, 8", "result": 10.2}, {"measurement": "blood sugar", "setting": "[2]; 2st day, 10 mg/kg, groups 5, 9", "result": 13.12}, {"measurement": "blood sugar", "setting": "[2]; [4]", "result": 13.25}, {"measurement": "blood sugar", "setting": "[2]; 5st day, 1 mg/kg, groups 3, 7", "result": 14.1}, {"measurement": "blood sugar", "setting": "[2]; 5st day, 5 mg/kg, groups 4, 8", "result": 10.8}, {"measurement": "blood sugar", "setting": "[2]; 5st day, 10 mg/kg, groups 5, 9", "result": 13.5}, {"measurement": "blood sugar", "setting": "[2]; [5]", "result": 12.5}, {"measurement": "blood sugar", "setting": "[2]; 8st day, 1 mg/kg, groups 3, 7", "result": 13.8}, {"measurement": "blood sugar", "setting": "[2]; 8st day, 5 mg/kg, groups 4, 8", "result": 7.12}, {"measurement": "blood sugar", "setting": "[2]; 8st day, 10 mg/kg, groups 5, 9", "result": 14.1}, {"measurement": "blood sugar", "setting": "[2]; [6]", "result": 12.8}, {"measurement": "blood sugar", "setting": "[2]; 11st day, 1 mg/kg, groups 3, 7", "result": 15.3}, {"measurement": "blood sugar", "setting": "[2]; 11st day, 5 mg/kg, groups 4, 8", "result": 8.21}, {"measurement": "blood sugar", "setting": "[2]; [7]", "result": 14.3}, {"measurement": "blood sugar", "setting": "[2]; [8]", "result": 12.9}, {"measurement": "blood sugar", "setting": "[2]; 14st day, 1 mg/kg, groups 3, 7", "result": 12.4}, {"measurement": "blood sugar", "setting": "[2]; 14st day, 5 mg/kg, groups 4, 8", "result": 8.3}, {"measurement": "blood sugar", "setting": "[2]; [9]", "result": 13.2}, {"measurement": "blood sugar", "setting": "[2]; [10]", "result": 12.5}, {"measurement": "blood sugar", "setting": "[2]; 17st day, 1 mg/kg, groups 3, 7", "result": 13.1}, {"measurement": "blood sugar", "setting": "[2]; 17st day, 5 mg/kg, groups 4, 8", "result": 8.2}, {"measurement": "blood sugar", "setting": "[2]; [11]", "result": 14.5}, {"measurement": "blood sugar", "setting": "[2]; [12]", "result": 12.5}, {"measurement": "blood sugar", "setting": "[2]; 20st day, 1 mg/kg, groups 3, 7", "result": 12.43}, {"measurement": "blood sugar", "setting": "[2]; 20st day, 5 mg/kg, groups 4, 8", "result": 10.23}, {"measurement": "blood sugar", "setting": "[2]; [13]", "result": 14.12}, {"measurement": "blood sugar", "setting": "[2]; [14]", "result": 12.45}, {"measurement": "fat vacuole in hepatocyte (liver tissue section, HE)", "setting": "[3]", "result": "almost disappear"}]}]}
